Values quoted from earlier work, collected in patent US20230172901A1, “COMPOSITIONS AND METHODS FOR THE PROPHYLAXIS AND TREATMENT OF FIBROTIC AND INFLAMMATORY CONDITIONS” (GRETALS AUSTRALIA PTY LTD, priority 2020, published 2023).

Tested on: IPF patients
Conditions: prior art, cited from earlier work

Structure (SMILES)	quality of life / respiratory parameters (IPF patients)	survival (IPF patients)	progression-free survival (IPF patients)	side effects
COC(=O)c1ccc2c(c1)NC(=O)/C2=C(\Nc1ccc(N(C)C(=O)CN2CCN(C)CC2)cc1)c1ccccc1 [Nintendanib]	can improve quality of life	do not improve survival		
Cc1ccc(=O)n(-c2ccccc2)c1 [Perfenidone]			improve progression-free survival	provokes a range of side effects in the skin, gastrointestinal tract, liver, and nervous system
